From paper PMC4783263 (Molecular pharmaceutics, 2016)
Converted amounts (≈) assume the structure as drawn. Read-outs that look alike come from different tables or passages of the source.

Assays:
[1] = system: SK-OV-3 cells; details: read-out: IC50 on SK-OV-3 cells; ABZ formulated in ethanol; cited from earlier work
[2] = system: OVCAR-3 (human ovarian adenocarcinoma); details: 150 mg/kg of ABZ 3 times a week for 4 weeks through IP; cited from earlier work
[3] = system: glioblastoma multiforme; details: daily oral doses (50 and 150 mg/kg) of ABZ tablets mixed with 50% sesame oil; cited from earlier work
[4] = system: SKHEP-1 (human liver adenocarcinoma) xenografts; details: ABZ in sesame oil, xenografts on the flank of mice; cited from earlier work
[5] = mice, repeated oral dosing of 30–40 mg/kg/day for 4–90 days; cited from earlier work
[6] = design: species or system Swiss Webster mice; details: mouse, in vivo; for AUC / Cmax / tmax: 3.2 mg/kg
[7] = cited from earlier work
[8] = system: Salmonella typhimurium TA100; test: Ames test; details: TA 100, −S9, 1.5 µg/plate
[9] = system: Salmonella typhimurium TA1535; test: Ames test; details: TA 1535, −S9, 1.5 µg/plate
[10] = in vivo; cited from earlier work

CCCSc1ccc2nc(NC(=O)OC)[nH]c2c1 [ABZ, Albendazole]
IC50 [1]: 3.88 µM | malignant ascites (in words) [2]: suppression of malignant ascites was observed | mouse survival (in words) [3]: moderate improvements in mouse survival | daily oral dose required to see an antitumor effect [4]: 300 mg/kg | toxicity (in words) [5]: no significant signs of toxicity

CCCS(=O)(=O)c1ccc2nc(NC(=O)OC)[nH]c2c1 [ABZSO2, Albendazole sulfone]
Absolute Bioavailability [6]: 81% | AUC ([6]; ip): 2380 ng·h/mL | Cmax ([6]; ip): 410 ± 70 ng/mL | tmax ([6]; ip): 2 h | AUC ([6]; iv): 2940 ng·h/mL | Cmax ([6]; iv): 500 ± 90 ng/mL | tmax ([6]; iv): 2 h

O=C1N2CN3C(=O)N4CN5C(=O)N6CN7C(=O)N8CN9C(=O)N%10CN%11C(=O)N%12CN%13C(=O)N%14CN1C1C2N2CN%15C(=O)N(CN%16C(=O)N(CN%17C(=O)N(CN%18C(=O)N(CN%19C(=O)N(CN%20C(=O)N(CN1C2=O)C%14C%13%20)C%12C%11%19)C%10C9%18)C8C7%17)C6C5%16)C4C3%15 (stereo not shown) [CB[7]]
solubility in pure water ([7]; reported by Kim): 20 to 30 mM | solubility in pure water ([7]; reported by Nau): 5 mM (≈ 5.81 mg/mL)

[N-]=[N+]=[N-].[Na+] [Sodium azide, Sodium Azide, reference compound]
revertant colonies, positive control [8]: Sodium azide 167 ± 34 colonies | revertant colonies, positive control ([8]; listed as sodium azide): 167 colonies | revertant colonies, positive control [9]: Sodium azide 232 ± 6 colonies | revertant colonies, positive control ([9]; listed as sodium azide): 232 colonies

O=C(O)CCSC[C@H]1O[C@@H]2O[C@H]3[C@H](O)[C@@H](O)[C@@H](O[C@H]4[C@H](O)[C@@H](O)[C@@H](O[C@H]5[C@H](O)[C@@H](O)[C@@H](O[C@H]6[C@H](O)[C@@H](O)[C@@H](O[C@H]7[C@H](O)[C@@H](O)[C@@H](O[C@H]8[C@H](O)[C@@H](O)[C@@H](O[C@H]9[C@H](O)[C@@H](O)[C@@H](O[C@H]1[C@H](O)[C@H]2O)O[C@@H]9CSCCC(=O)O)O[C@@H]8CSCCC(=O)O)O[C@@H]7CSCCC(=O)O)O[C@@H]6CSCCC(=O)O)O[C@@H]5CSCCC(=O)O)O[C@@H]4CSCCC(=O)O)O[C@@H]3CSCCC(=O)O [sugammadex]
effect on QT interval (in words) [10]: no relevant effects of the compound on QT interval
